Here are results for three molecules from patent publication US20120041058A1, “COMPOSITION OF TRADITIONAL CHINESE MEDICINE FOR REDUCING BLOOD FAT AND PREPARATION METHOD THEREOF” (ANJI GREEN LIFE BIOTECH CO., LTD., priority 2009, published 2012).

The experiment relates to acute high-lipid mouse model. Put plainly: Acute high-lipid mouse model resulted from egg yolk emulsion injection: serum cholesterol and triglycerides. In kind it is in vivo, ICR mice. The following applies: for T-cho / Trig: ICR mice, oral 1 time/d for 14 d, blood 20 h after ip 75% egg yolk emulsion; for T-cho / Trig / Reduction rate of cholesterol / Reduction rate of triglyceride: dose 2 mg/mouse; for Reduction rate of cholesterol / Reduction rate of triglyceride: vs model mouse group, 14 d; for blood-lipid-lowering effect on the mouse model of high blood lipid caused by the egg yolk emulsion: after two weeks of oral administration, result in words. As to the method: The Treatment Efficiency of Blood-Lipid-Lowering Traditional Chinese Medicine Compositions Having Different Component Proportions on the Acute High-Lipid Mouse Models Resulted from Egg Yolk Emulsion Injection Male ICR mice of 20 g˜22 g are divided into several groups after 5 d adaptive feeding: control group, fed with normal saline; model group, fed with normal saline; positive control group, fed with Xuezhikang of 1000 mg/kg.

Consider `C[C@@H]1CC[C@H]2[C@@H](C)C(=O)O[C@@H]3O[C@@]4(C)CC[C@@H]1[C@]32OO4` [Artemisinin, artemisinin], for which the T-cho came out at 6.10 ± 3.20 mmol/L, the Trig is listed as 8.90 ± 4.00 mmol/L, the “Reduction rate of cholesterol” value came to 25.1% and the “Reduction rate of triglyceride” value is reported as 12.9%.

For the molecule `C[C@H]1[C@H](OC(=O)CCC(=O)O)O[C@@H]2O[C@@]3(C)CC[C@H]4[C@H](C)CC[C@@H]1[C@@]24OO3` [Artesunate, artesunate], the T-cho is given as 8.32 ± 1.09 mmol/L, the Trig was 10.72 ± 2.68 mmol/L, the “blood-lipid-lowering effect on the mouse model of high blood lipid caused by the egg yolk emulsion” value is given as “neither ursolic acid nor artesunate had the blood-lipid-lowering effect” and the “Reduction rate of cholesterol” value is listed as −2.21%. The “Reduction rate of triglyceride” value was −4.89%.

For the molecule `C[C@H]1[C@H](C)CC[C@]2(C(=O)O)CC[C@]3(C)C(=CC[C@@H]4[C@@]5(C)CC[C@H](O)C(C)(C)[C@@H]5CC[C@]43C)[C@H]12` [Ursolic acid, ursolic acid], the T-cho is reported as 9.11 ± 1.49 mmol/L, the Trig was 13.37 ± 3.63 mmol/L, the “blood-lipid-lowering effect on the mouse model of high blood lipid caused by the egg yolk emulsion” value was “neither ursolic acid nor artesunate had the blood-lipid-lowering effect” and the “Reduction rate of cholesterol” value was −11.92%. The “Reduction rate of triglyceride” value is on record as −30.82%.
